Like-named read-outs stand apart in the source and are kept apart here.
Assays:
Type in all cases: biochemical
Human recombinant LOXL3 = molecular target: T1, Human recombinant LOXL3 (Homo sapiens, UniProt P58215); assay: LOXL3 inhibition, Amplex Red oxidation assay
T1 sequence (P58215 26-753): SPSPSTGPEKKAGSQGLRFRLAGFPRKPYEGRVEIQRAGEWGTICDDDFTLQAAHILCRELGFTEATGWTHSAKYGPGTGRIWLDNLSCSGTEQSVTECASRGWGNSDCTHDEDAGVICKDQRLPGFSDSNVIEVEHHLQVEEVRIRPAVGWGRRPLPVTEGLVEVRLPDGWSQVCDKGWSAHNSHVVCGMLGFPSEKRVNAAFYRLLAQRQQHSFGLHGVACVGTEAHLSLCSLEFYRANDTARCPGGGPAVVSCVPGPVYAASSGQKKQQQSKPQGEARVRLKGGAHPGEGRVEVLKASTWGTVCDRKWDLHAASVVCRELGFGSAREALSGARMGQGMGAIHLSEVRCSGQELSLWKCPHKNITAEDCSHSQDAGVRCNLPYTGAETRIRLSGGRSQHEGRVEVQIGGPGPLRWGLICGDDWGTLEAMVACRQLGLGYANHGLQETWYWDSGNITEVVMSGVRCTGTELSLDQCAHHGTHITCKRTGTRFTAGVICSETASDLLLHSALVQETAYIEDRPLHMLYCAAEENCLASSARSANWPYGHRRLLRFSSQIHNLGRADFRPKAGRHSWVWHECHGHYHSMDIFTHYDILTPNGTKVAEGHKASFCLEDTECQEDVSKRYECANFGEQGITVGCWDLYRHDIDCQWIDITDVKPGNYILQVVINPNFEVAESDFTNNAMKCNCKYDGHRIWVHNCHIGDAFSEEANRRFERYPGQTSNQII
Description: (§1) LOX and LOXL protein family members can be acquired as recombinant active proteins from commercial sources, or extracted from animal tissues like bovine aorta, tendons, pig skin; or prepared from cell cultures. […] The assay was developed using either 384 or 96 well format. Briefly, in a standard black, clear bottom 384 well plate assay 25 μL of a dilution of any of the isoenzymes and orthologues in 1.2 M urea, 50 mM sodium borate buffer (pH 8.2) were added into each well in the presence of 1 μM mofegiline and 0.5 mM pargyline (to inhibit SSAO and MAO-B and MAO-A, respectively; not necessary if the enzyme is from a recombinant or purified form). Test compounds were dissolved in DMSO and tested in a Concentration Response Curve (CRC) with 11 data points, typically in the micromolar or nanomolar range after incubation with the enzyme for 30 min at 37° C. 25 μL of a reaction mixture containing twice the KM concentration of putrescine (Sigma Aldrich, e.g. 20 mM for LOX and LOXL1 or 10 mM for LOXL2 and 4 mM for LOXL3 and LOXL4), 120 μM Amplex Red (Sigma Aldrich) and 1.5 U/mL horseradish peroxidase (Sigma Aldrich) prepared in 1.2 M urea, 50 mM sodium borate buffer (pH 8.2) were then added to the corresponding wells. The above volumes were doubled in the case of 96 wells plate. The fluorescence (RFU) was read every 2.5 min for 30 min at […] 37° C., excitation 565 nm and emission 590 (Optima; BMG labtech). The slope of the kinetics for each well was calculated using MARS data analysis software (BMG labtech) and this value was used to deduce the IC50 value (Dotmatics). The ability of the inventive compounds to inhibit the amine oxidase activity of LOX and other family members is shown in Table 4.

Bovine LOX = molecular target: T2, Bovine LOX (Bos taurus, UniProt P33072); assay: LOX inhibition, Amplex Red oxidation assay
T2 sequence (P33072 170-418): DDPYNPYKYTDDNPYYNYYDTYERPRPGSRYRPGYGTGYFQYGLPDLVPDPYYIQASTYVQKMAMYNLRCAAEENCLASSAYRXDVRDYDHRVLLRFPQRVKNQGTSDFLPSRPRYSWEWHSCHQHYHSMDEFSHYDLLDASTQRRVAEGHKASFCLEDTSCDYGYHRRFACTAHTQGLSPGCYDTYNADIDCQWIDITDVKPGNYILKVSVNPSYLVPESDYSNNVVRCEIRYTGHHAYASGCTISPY
Description: as §1

Human recombinant LOXL4 = molecular target: T3, Human recombinant LOXL4 (Homo sapiens, UniProt Q96JB6); assay: LOXL4 inhibition, Amplex Red oxidation assay
T3 sequence (Q96JB6 25-756): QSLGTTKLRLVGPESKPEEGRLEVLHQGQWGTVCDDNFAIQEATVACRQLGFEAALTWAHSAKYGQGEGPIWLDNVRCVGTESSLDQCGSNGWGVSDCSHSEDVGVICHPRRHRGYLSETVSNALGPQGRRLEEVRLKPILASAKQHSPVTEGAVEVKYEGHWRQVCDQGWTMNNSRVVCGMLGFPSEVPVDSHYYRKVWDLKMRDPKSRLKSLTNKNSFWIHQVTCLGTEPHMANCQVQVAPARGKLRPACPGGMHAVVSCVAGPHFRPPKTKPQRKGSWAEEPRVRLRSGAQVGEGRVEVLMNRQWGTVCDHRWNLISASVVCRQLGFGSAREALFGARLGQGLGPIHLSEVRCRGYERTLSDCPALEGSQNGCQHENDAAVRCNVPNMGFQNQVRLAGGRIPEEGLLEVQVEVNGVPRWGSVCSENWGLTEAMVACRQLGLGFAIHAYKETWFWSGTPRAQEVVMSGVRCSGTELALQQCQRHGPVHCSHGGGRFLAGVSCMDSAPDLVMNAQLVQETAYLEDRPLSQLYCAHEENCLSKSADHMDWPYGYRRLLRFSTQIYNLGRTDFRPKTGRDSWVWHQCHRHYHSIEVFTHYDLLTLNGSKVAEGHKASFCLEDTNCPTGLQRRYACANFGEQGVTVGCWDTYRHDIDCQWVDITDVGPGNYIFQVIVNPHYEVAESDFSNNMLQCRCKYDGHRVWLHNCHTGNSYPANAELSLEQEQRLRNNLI
Description: as §1

Human recombinant LOXL1 = molecular target: T4, Human recombinant LOXL1 (Homo sapiens, UniProt Q08397); assay: LOXL1 inhibition, Amplex Red oxidation assay
T4 sequence (Q08397 96-574): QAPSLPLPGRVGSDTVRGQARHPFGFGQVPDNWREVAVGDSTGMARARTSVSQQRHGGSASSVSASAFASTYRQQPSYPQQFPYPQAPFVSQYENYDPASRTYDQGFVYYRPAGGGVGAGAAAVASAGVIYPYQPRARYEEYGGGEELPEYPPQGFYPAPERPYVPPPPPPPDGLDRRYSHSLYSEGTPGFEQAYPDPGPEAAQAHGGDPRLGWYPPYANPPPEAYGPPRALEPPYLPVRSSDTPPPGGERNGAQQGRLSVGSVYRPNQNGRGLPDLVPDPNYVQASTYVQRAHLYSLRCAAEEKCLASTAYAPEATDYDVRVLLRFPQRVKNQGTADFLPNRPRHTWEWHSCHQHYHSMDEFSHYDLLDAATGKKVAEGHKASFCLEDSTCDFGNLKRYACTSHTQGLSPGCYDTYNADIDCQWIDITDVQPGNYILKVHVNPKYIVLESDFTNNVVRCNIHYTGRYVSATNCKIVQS
Description: as §1

[1] = incubation with enzyme 30 min at 37° C, read-out: Human recombinant LOXL3 Activity IC50
[2] = incubation with enzyme 30 min at 37° C, read-out: Bovine LOX Activity IC50
[3] = incubation with enzyme 30 min at 37° C, read-out: Human recombinant LOXL4 Activity IC50
[4] = incubation with enzyme 30 min at 37° C, read-out: Human recombinant LOXL1 Activity IC50

| IC50 (Human recombinant LOXL3; [1]) [µM] | IC50 (Bovine LOX; [2]) [µM] | IC50 (Human recombinant LOXL4; [3]) [µM] | IC50 (Human recombinant LOXL1; [4]) [µM] | SMILES | IC50 (Human recombinant LOXL3) [µM] | IC50 (Bovine LOX) [µM] | IC50 (Human recombinant LOXL4) [µM] | IC50 (Human recombinant LOXL1) [µM] |
| --- | --- | --- | --- | --- | --- | --- | --- | --- |
| – | – | – | – | NC/C=C(\F)C(F)(F)S(=O)(=O)c1ccccc1 [Compound 1, (Z)-3,4,4-trifluoro-4-(phenylsulfonyl)but-2-en-1-amine] | 1.5 | 3.7 | 0.3 | 3.4 |
| 16.4 | 8 | 0.6 | 13.4 | NC/C=C(\F)C(F)(F)S(=O)(=O)c1cccc2cccnc12 [Compound 2, (Z)-3,4,4-trifluoro-4-(quinolin-8-ylsulfonyl)but-2-en-1-amine] | – | – | – | – |
| 7.4 | 4.3 | 0.7 | 4.8 | CNc1ccccc1S(=O)(=O)C(F)(F)/C(F)=C/CN [Compound 4, (Z)-2-((4-amino-1,1,2-trifluorobut-2-en-yl)sulfony1)-N-methylaniline] | – | – | – | – |
| – | 3.8 | – | – | Cc1ccccc1S(=O)(=O)C(F)(F)/C(F)=C/CN [Compound 5, (Z)-3,4,4-trifluoro-4-(o-tolylsulfonyl)but-2-en-1-amine] | – | – | – | – |
| 1.8 | 3.5 | 0.3 | 5.1 | Cc1ccc(S(=O)(=O)C(F)(F)/C(F)=C/CN)cc1 [Compound 6, (Z)-3,4,4-trifluoro-4-tosylbut-2-en-1-amine] | – | – | – | – |
| 1 | 2.5 | 0.1 | 3.1 | NC/C=C(\F)C(F)(F)S(=O)(=O)Cc1ccccc1 [Compound 8, (Z)-4-(benzylsulfony1)-3,4,4-trifluorobut-2-en-1-amine] | – | – | – | – |
| 5.2 | 6.5 | 1.1 | 8.7 | NC/C=C(\F)C(F)(F)[S+]([O-])c1ccccc1 (stereo not shown) [Compound 9, (Z)-3,4,4-trifluoro-4-(phenylsulfinyl)but-2-en-1-amine] | – | – | – | – |
| 1.5 | 2.7 | 0.1 | 2 | CS(=O)(=O)c1ccc(COc2ccccc2S(=O)(=O)C(F)(F)/C(F)=C/CN)cc1 [Compound 10, (Z)-3,4,4-trifluoro-4-((2-((4-(methylsulfonyl)benzyl)oxy)phenyl)sulfonyl) but-2-en-1-amine] | – | – | – | – |
| 2.7 | 5.1 | 0.3 | 7.4 | COc1cccc(S(=O)(=O)C(F)(F)/C(F)=C/CN)c1 [Compound 12, (Z)-3,4,4-trifluoro-4-((3-methoxyphenyl)sulfonyl)but-2-en-1-amine] | – | – | – | – |
| 1.2 | 4.5 | 0.2 | 7 | NC/C=C(\F)C(F)(F)S(=O)(=O)c1cccs1 [Compound 14, (Z)-3,4,4-trifluoro-4-(thiophen-2-ylsulfonyl)but-2-en-1-amine] | – | – | – | – |
| 0.8 | 3.5 | 0.2 | 4.6 | CS(=O)(=O)c1cccc(CS(=O)(=O)C(F)(F)/C(F)=C/CN)c1 [Compound 17, (Z)-3,4,4-trifluoro-4-((3-(methylsulfonyl)benzyl)sulfonyl)but-2-en-1-amine] | – | – | – | – |
| 1.3 | 2.5 | 0.5 | 4.3 | NC/C=C(\F)C(F)(F)S(=O)(=O)C1CCCC1 [Compound 19, (Z)-4-(cyclopentylsulfony1)-3,4,4-trifluorobut-2-en-1-amine] | – | – | – | – |

| SMILES | IC50 (Human recombinant LOXL3; [1]) [µM] | IC50 (Bovine LOX; [2]) [µM] | IC50 (Human recombinant LOXL4; [3]) [µM] | IC50 (Human recombinant LOXL1; [4]) [µM] | IC50 (Human recombinant LOXL3) [µM] | IC50 (Bovine LOX) [µM] | IC50 (Human recombinant LOXL4) [µM] | IC50 (Human recombinant LOXL1) [µM] |
| --- | --- | --- | --- | --- | --- | --- | --- | --- |
| N#CCCN [BAPN, β-aminopropionitrile, reference compound] | 0.5 | 2.2 | 0.3 | 2.5 | – | – | – | – |

Reference: patent US20220251036A1, “DIFLUOROHALOALLYLAMINE SULFONE DERIVATIVE INHIBITORS OF LYSYL OXIDASES, METHODS OF PREPARATION, AND USES THEREOF” (PHARMAXIS LTD., priority 2019, published 2022)
